Test results taken from ChEMBL document CHEMBL1144706, “Antineoplastic agents. 558. Ampelocissus sp. cancer cell growth inhibitory constituents” (2008).
≈ marks a conversion by molar mass, not a printed value.

What was measured:
Assay type in all cases: functional
DU-145 = assay: Growth inhibition of human DU145 cells
KM-20L2 = assay: Growth inhibition of human KM20L2 cells
SF-268 = assay: Growth inhibition of human SF268 cells
BXPC-3 = assay: Growth inhibition of human BXPC3 cells
NCI-H460 = assay: Growth inhibition of human NCI-H460 cells
MCF7 = assay: Growth inhibition of human MCF7 cells
P388 = assay: Growth inhibition of mouse P388 cells

| GI50 (DU-145) | GI50 (BXPC-3) | GI50 (NCI-H460) | GI50 (MCF7) | GI50 (P388) | SMILES | GI50 (KM-20L2) | GI50 (SF-268) |
| --- | --- | --- | --- | --- | --- | --- | --- |
| 0.0093 µg/mL (≈ 0.0139 µM) | 1.3 µg/mL (≈ 1.95 µM) | 1 µg/mL (≈ 1.5 µM) | 0.0022 µg/mL (≈ 0.0033 µM) | – | CCCCCCCCCCCC[C@@H](O)[C@H]1CC[C@H]([C@@H](C[C@H](O)CCCCCCCCCC(O)CCC2=CC(C)OC2=O)OC(C)=O)O1 (some centres undefined) [UVARIBONIN] | 0.0013 µg/mL (≈ 0.00195 µM) | 1.4 µg/mL (≈ 2.1 µM) |
| 0.33 µg/mL (≈ 1.1 µM) | 0.3 µg/mL (≈ 0.999 µM) | 0.52 µg/mL (≈ 1.73 µM) | 0.3 µg/mL (≈ 0.999 µM) | – | Cc1c(O)c(C=O)c(O)c(C(=O)CCc2ccccc2)c1O | 0.36 µg/mL (≈ 1.2 µM) | 0.55 µg/mL (≈ 1.83 µM) |
| 0.0065 µg/mL (≈ 0.00998 µM) | 7.3 µg/mL (≈ 11.2 µM) | 0.2 µg/mL (≈ 0.307 µM) | 0.12 µg/mL (≈ 0.184 µM) | 0.014 µg/mL (≈ 0.0215 µM) | CCCCCCCCCCCC[C@@H](O)[C@H]1CC[C@H]([C@@H](C[C@H](O)CCCCCCCCCCCCC2=CC(C)OC2=O)OC(C)=O)O1 (some centres undefined) | 0.034 µg/mL (≈ 0.0522 µM) | 11.9 µg/mL (≈ 18.3 µM) |
